Reference: PubChem BioAssay AID1963850 (Molecular Pharmacology Branch, DTP, NCI, 2024)
Values joined by “and” are separate entries in the source; they are usually repeats but may differ in a detail not shown here. Equal entries are not always repeated.

Tested on: 192522-019-R-J2-PDC complex tumor spheroid viability
Experiment: Anticancer human tumor 192522-019-R-J2-PDC patient-derived colon adenocarcinoma cell line growth inhibition [POLQ]
Details: for viability, T/C: stronger effect = lower value; for IC50: curve of compound
Protocol: Multicellular complex tumor spheroid response to Polymerase (POL) inhibitors (novobiocin, ART-558, RP6685) in combination with a variety of drugs and investigational agents in selected tumor cell lines
The POL inhibitors (novobiocin, ART-558, and RP6685) were evaluated both individually and in combination with standard of care and investigational anticancer small molecules within a complex spheroid model of solid tumors. . Complex spheroids include a stromal component modeled by human endothelial cells (HUVEC) and fibroblasts modeled by human mesenchymal stem cells (MSCs). The concentration ranges selected for each drug and investigational agent were based upon clinically achievable concentrations if the clinical Cmax of the agent was known.
Compounds. The drugs and investigational agents: novobiocin (NSC847541), ART-558 (NSC835418), RP-6685 (NSC848927), peposertib (NSC802822), ceralasertib (NSC780249), elimusertib (NSC800525), camonsertib (NSC841442), AZD-1390 (NSC803789), olaparib (NSC753686), talazoparib (NSC767125), rucaparib (NSC756644), sotorasib (NSC818433), MRTX-1133 (NSC836407), SN-38 (NSC673596), topotecan (NSC609699), epotoside (NSC141540), doxorubicin (NSC123127), gemcitabine (NSC613327), 5-fluorouracil (NSC19893), paclitaxel (NSC125973), vemurafenib (NSC761431), MSA-2 (NSC828583), SN-011 (NSC837082), adavosertib (NSC754352), prexasertib (NSC758257), carboplatin (NSC241240) and oxaliplatin (NSC266046), were obtained from the National Cancer Institute (NCI) Developmental Therapeutics Program Chemical Repository (21). The FDA-approved anticancer drug set is available from the Developmental Therapeutics Program at https://dtp.cancer.gov/organization/dscb/obtaining/. […] The stock solutions were prepared in dimethyl sulfoxide (DMSO, Sigma-Aldrich, St. Louis, MO, cat. D2650), except for the platinum compounds which were prepared in saline (Quality Biological, Gaithersburg, MD, cat. 114-055-101), at 800-fold the tested concentration and stored at -70 degrees C prior to their use. All drugs and investigational agents were tested over a range starting from a high concentration at or near the clinical Cmax and decreasing in half-log increments. If the clinical Cmax for an agent had not been determined, the highest concentration tested was 10 microM, except for SN-38, which was tested at a high concentration of 1 microM.
Cell Culture. All cells were maintained in an incubator at 37 degrees C and 5% CO2 with 95% humidity. The PDC lines were cultured according to standard operating procedures established by the NCI PDMR (https://pdmr.cancer.gov). Table 3 of the manuscript, lists the cell lines along with the number of the three cell types plated to form the mct-spheroids and media for tumor cell growth. After thawing, all PDC lines, except 997537-175-T-J1-PDC and 415267-285-R-J2-PDC, were cultured in Matrigel-coated flasks prepared with a working solution of 1X Ham's F-12 nutrient mix, without supplementation (Thermo Fisher Scientific, cat. 11765054), 100 U/mL penicillin-streptomycin (Thermo Fisher Scientific, cat. 15140122), and 2.5% Matrigel (Corning Inc., Corning, NY, cat. 354248) for the first three passages. The two PDC lines 997537-175-T-J1-PDC and 415267-285-R-J2-PDC were cultured on uncoated flasks. The 857933-349-R-J2-PDC line was cultured in 6C/Colon 1B media containing advanced DMEM/F-12 (Thermo Fisher Scientific, cat. 12634028), 10 mM HEPES (Thermo Fisher Scientific, cat. 15630080), 1X GlutaMAX supplement (Thermo Fisher Scientific, cat. 35050061), 0.1 mg/mL primocin (InvivoGen, San Diego, CA, cat. ant-pm-2), 10% defined fetal bovine serum, heat inactivated (HyClone Laboratories Inc., Logan, UT, cat. SH30070.03HI), 50% L-WRN conditioned media (ATCC, cat. CRL-3276), 1.25 mM N-Acetyl-L-cysteine (Sigma-Aldrich, cat. A9165), 10 mM nicotinamide (Sigma-Aldrich, cat. N0636), 1X B-27 supplement (Thermo Fisher Scientific, cat. 17504044), 1X N-2 supplement (Thermo Fisher Scientific, cat. […]
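Note: spheroids exposed to drugs for seven days before reading.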
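Throughout, for viability, T/C: 100% = DMSO vehicle control viability in luminescence.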

Row | Compound | viability, T/C (compound 0.00316 µM) | viability, T/C (compound 0.0316 µM) | viability, T/C (compound 0.1 µM) | viability, T/C (compound 0.316 µM) | viability, T/C (compound 1 µM) | IC50 | viability, T/C (compound 3.16 µM) | viability, T/C (compound 10 µM)
1 | CCc1c2c(nc3ccc(O)cc13)-c1cc3c(c(=O)n1C2)COC(=O)[C@]3(O)CC | 109% and 91.9% and 85.5% | 70.5% and 78% and 56.7% | 56.5% and 58.4% and 51.8% | 44.4% and 42.9% and 32.3% | 27.6% and 37.6% and 25.5% | 128 nM and 200 nM and 50.2 nM |  | 
2 | CNCc1ccc(-c2[nH]c3cc(F)cc4c3c2CCNC4=O)cc1 |  | 104% and 103% and 93% | 98.4% and 101% and 86% | 104% and 102% and 109% | 107% and 120% and 102% | > 10000 nM | 100% and 108% and 105% | 96.8% and 103% and 92.1%
3 | C#Cc1c(F)ccc2cc(O)cc(-c3ncc4c(N5CC6CCC(C5)N6)nc(OCC56CCCN5CC(F)C6)nc4c3F)c12 (configuration not stated) |  | 102% and 98.2% and 109% | 93.6% and 81.8% and 87.3% | 73.3% and 77.1% and 80.5% | 78.4% and 77.9% and 83.4% | > 10000 nM | 78.9% and 73.7% and 70.6% | 67.8% and 64.1% and 64.3%
4 | CCc1cc2c(N3CCc4c(cc(Cn5ccnc5)cc4-c4cn(C)nc4C(F)(F)F)C3=O)ccnc2c(OC)n1 |  | 102% (2×) and 107% | 84.3% and 91.4% and 86.7% | 88.2% and 90.7% and 92.4% | 87.8% and 81.3% and 83.7% | > 10000 nM | 76.5% and 75.1% and 70.2% | 65.6% and 72.1% and 73%
